Assay results published in US9409952B2, “Peptide-compound cyclization method” (Chugai Seiyaku Kabushiki Kaisha, priority 2011, dated 2016).
Like-named read-outs stand apart in the source and are kept apart here. Starred links: 1 amine or outer side, 2 acyl side, 3 side chain; linkers in the order of their positions; H or OH if unused. Positions of bridges follow the written chain, without caps; N, C: chain ends. Non-standard residues stand in square brackets, D forms with d. Residues, ends and D or L forms follow the SMILES beside them. ξ: configuration not given here. *: point of attachment. Phe(4-(CH2)5CO) = O=C([C@H](Cc1ccc(CCCCCC(=O)[*:3])cc1)N[*:1])[*:2]; NMePhe(3-Cl) = CN[C@@H](Cc1cccc(Cl)c1)C(=O)O; NMeF = CN[C@@H](Cc1ccccc1)C(=O)O; NMeGABA = CN(CCCC(=O)[*:2])[*:1]; NMeI = CC[C@H](C)[C@H](NC)C(=O)O; NMeL = CN[C@@H](CC(C)C)C(=O)O; ξNMeF = CNC(Cc1ccccc1)C(=O)O; NMeV = CN[C@H](C(=O)O)C(C)C; NMeA = CN[C@@H](C)C(=O)O; Piperidide = C1CCN(*)CC1; dNMeA = CN[C@H](C)C(=O)O; β3hA = C[C@H](N)CC(=O)O; Sar = CNCC(=O)O; tBu = CC(C)(C)*

How the values were obtained:
[1] = PAMPA (parallel artificial membrane permeability assay); format: in vitro ADME; settings: for Papp at 18 hours, 50 µM: PAMPA
Outline: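 Artificial membrane was 10% (w/v) egg lecithin plus 0.5% (w/v) cholesterol in dodecane on a PVDF filter. A 10 mM DMSO stock was added at 0.5% (v/v) to donor buffer (50 mM MOPSO, pH 6.5, 5.0% glycocholic acid). After 18 h at 37 °C, LC/MS or LC/UV gave donor and acceptor levels for Pe.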

[2] = Metabolic stability in human hepatic microsome; format: in vitro ADME; settings: microsomes
[3] = membrane permeation rate (Pe), 50 mM MOPSO buffer pH 6.5 with 5.0% glycocholic acid, 37° C., 18 hours, read-out: iPAMPA Pe
[4] = pH 7.4, human hepatic microsome, NADPH(+), read-out: CL NADPH(+)

Compound	Papp at 18 hours, 50 µM [1, 3] [×10⁻⁶ cm/s]	microsomal CLint at 1 uM [2, 4] [µL/min/mg]	Papp at 18 hours, 50 µM ([1]; pH 6.5) [×10⁻⁶ cm/s]	microsomal CLint at 1 uM ([2]; human, pH 7.4, CL NADPH(+)) [µL/min/mg]	iPAMPA Pe ([1]; membrane permeation rate (Pe), 50 mM MOPSO buffer pH 6.5 with 5.0% glycocholic acid, 37° C., 18 hours)
CC(C)C[C@H]1C(=O)N(C)[C@@H](Cc2ccccc2)C(=O)N(C)[C@@H](Cc2ccccc2)C(=O)N[C@@H]([C@@H](C)O)C(=O)N(C)[C@@H](C)C(=O)N(C)[C@@H](CC(C)C)C(=O)N[C@H](C(=O)N2CCCCC2)CC(=O)N(C)[C@@H](C)C(=O)N(C)[C@@H](CC(C)C)C(=O)N(C)[C@@H](CC(C)C)C(=O)N[C@@H](C)C(=O)N1C [DP-158] ([NMeA][NMeL][NMeL]A[NMeL][NMeF][NMeF]T[NMeA][NMeL]D-Piperidide; lactam N-11)	49	41			
CC(C)C[C@H]1C(=O)NCC(=O)N[C@H](C(=O)N(C)[C@@H](Cc2ccccc2)C(=O)N(C)[C@@H](Cc2ccccc2)C(=O)N[C@@H](C)C(=O)N2CCCCC2)CC(=O)N[C@@H](C)C(=O)N[C@@H]([C@@H](C)O)C(=O)N(C)[C@@H](C)C(=O)N(C)[C@@H](Cc2ccccc2)C(=O)N[C@@H](C(C)C)C(=O)N(C)[C@@H](Cc2ccccc2)C(=O)N1C [DP-396] (AT[NMeA][NMeF]V[NMeF][NMeL]GD[NMeF][NMeF]A-Piperidide; lactam N-9)			55	141	
CC[C@H](C)[C@@H]1NC(=O)[C@H](C)N(C)C(=O)[C@@H](C)N(C)C(=O)C[C@H](C)NC(=O)[C@H](CC(C)C)N(C)C(=O)[C@H](C)N(C)C(=O)[C@H](Cc2cccc(Cl)c2)N(C)C(=O)[C@H]([C@@H](C)O)NC(=O)[C@H](Cc2cccc(Cl)c2)N(C)C(=O)[C@H](CC(C)C)N(C)C1=O [DP-811] (cyclo(I[NMeL][NMePhe(3-Cl)]T[NMePhe(3-Cl)][NMeA][NMeL][β3hA][dNMeA][NMeA]))		241			7.0E−05
CC[C@H](C)[C@H]1C(=O)N(C)[C@@H](CC(C)C)C(=O)N(C)[C@@H](Cc2ccccc2)C(=O)N[C@@H](CC(C)C)C(=O)N(C)[C@@H](C(C)C)C(=O)N[C@@H](Cc2ccccc2)C(=O)N[C@@H]([C@@H](C)O)C(=O)N[C@H](C(=O)N2CCCCC2)Cc2ccc(cc2)CCCCCC(=O)N[C@@H](C)C(=O)N1C [DP-847] (A[NMeI][NMeL][NMeF]L[NMeV]FT[Phe(4-(CH2)5CO)]-Piperidide; lactam N-9)	3.3	329			
CC[C@H](C)[C@H]1C(=O)N[C@H](C(=O)N2CCCCC2)CC(=O)N[C@@H](C)C(=O)N(C)[C@@H](Cc2ccccc2)C(=O)N(C)[C@@H](CC(C)C)C(=O)N[C@@H]([C@@H](C)O)C(=O)N(C)CC(=O)N(C)[C@@H](CC(C)C)C(=O)N[C@@H](COC(C)(C)C)C(=O)N1C [DP-37] (A[NMeF][NMeL]T[Sar][NMeL]S(tBu)[NMeI]D-Piperidide; lactam N-9)			31	156	
CC[C@H](C)[C@H](NC(=O)[C@H](Cc1ccccc1)N(C)C(=O)[C@@H]1CC(=O)N[C@@H](C)C(=O)N(C)[C@@H](CC(C)C)C(=O)N[C@@H]([C@@H](C)O)C(=O)N(C)CC(=O)N(C)[C@@H](Cc2ccccc2)C(=O)N[C@@H](CC(C)C)C(=O)N1)C(=O)N1CCCCC1 [DP-567] (A[NMeL]T[Sar][NMeF]LD[NMeF]I-Piperidide; lactam N-7)	30	224			
CC[C@H](C)[C@@H]1NC(=O)[C@H]([C@@H](C)O)NC(=O)[C@H](CC(C)C)NC(=O)[C@H](Cc2ccccc2)NC(=O)[C@H](CC(C)C)NC(=O)[C@H](C)NC(=O)C[C@@H](C(=O)N2CCCCC2)NC(=O)[C@H](Cc2ccccc2)NC(=O)[C@H](CC(C)C)NC(=O)[C@H](Cc2ccccc2)N(C)C1=O [DP-329] (ALFLTI[NMeF]LFD-Piperidide; lactam N-10)	2.4	66			
CC(C)C[C@H]1C(=O)N[C@@H](C(C)C)C(=O)N[C@H](C(=O)N(C)C(Cc2ccccc2)C(=O)N(C)[C@@H](Cc2ccccc2)C(=O)N[C@@H](C)C(=O)N2CCCCC2)CC(=O)N[C@H](C(C)C)C(=O)N(C)[C@@H](C)C(=O)N(C)[C@@H](Cc2ccccc2)C(=O)N(C)[C@@H](CC(C)C)C(=O)N[C@@H]([C@@H](C)O)C(=O)N(C)CC(=O)N1C (stereo partly drawn) [DP-306] ([dV][NMeA][NMeF][NMeL]T[Sar][NMeL]VD[ξNMeF][NMeF]A-Piperidide; lactam N-9)			56	63	
CC(C)C[C@@H]1NC(=O)[C@@H](C)NC(=O)C[C@@H](C(=O)N2CCCCC2)NC(=O)[C@H](CC(C)C)N(C)C(=O)[C@H](C)N(C)C(=O)[C@H](CC(C)C)N(C)C(=O)[C@H](CC(C)C)N(C)C(=O)[C@H](Cc2ccccc2)N(C)C(=O)[C@H](C)NC(=O)[C@H](Cc2ccccc2)N(C)C(=O)[C@H]([C@@H](C)O)NC1=O [DP-139] ([dA]LT[NMeF]A[NMeF][NMeL][NMeL][NMeA][NMeL]D-Piperidide; lactam N-11)	23	22			
CC(C)C[C@H]1C(=O)N(C)[C@@H](C)C(=O)N(C)[C@@H](Cc2ccccc2)C(=O)N[C@@H](COC(C)(C)C)C(=O)N[C@H](C(=O)N2CCCCC2)CC(=O)N(C)CCCC(=O)N[C@@H]([C@@H](C)O)C(=O)N1C [DP-677] ([NMeGABA]T[NMeL][NMeA][NMeF]S(tBu)D-Piperidide; lactam N-7)	7.2	45			
CC(C)C[C@@H]1NC(=O)[C@H](Cc2ccccc2)N(C)C(=O)CN(C)C(=O)[C@H]([C@@H](C)O)NC(=O)[C@H](CC(C)C)N(C)C(=O)[C@H](C)NC(=O)C[C@@H](C(=O)N(C)[C@@H](CC(C)C)C(=O)N[C@H](C(=O)N(C)[C@@H](C)C(=O)N[C@@H](C)C(=O)N2CCCCC2)C(C)C)NC1=O [DP-566] (A[NMeL]T[Sar][NMeF]LD[NMeL]V[NMeA]A-Piperidide; lactam N-7)	11	38			
CC[C@H](C)[C@@H]1NC(=O)[C@H](CC(C)C)N(C)C(=O)[C@H](C)NC(=O)CCCN(C)C(=O)C[C@@H](C(=O)N2CCCCC2)NC(=O)[C@H]([C@@H](C)O)NC(=O)[C@H](Cc2ccccc2)NC(=O)[C@H](C(C)C)N(C)C(=O)[C@H](CC(C)C)N(C)C(=O)[C@H](Cc2ccccc2)N(C)C1=O [DP-121] ([NMeGABA]A[NMeL]I[NMeF][NMeL][NMeV]FTD-Piperidide; lactam N-10)			41	46	
CC[C@H](C)[C@@H]1NC(=O)[C@H](Cc2ccccc2)N(C)C(=O)[C@H](Cc2ccccc2)NC(=O)[C@H](CC(C)C)N(C)C(=O)[C@H](CC(C)C)NC(=O)[C@H](C)NC(=O)C[C@@H](C(=O)N2CCCCC2)NC(=O)[C@H](CC(C)C)NC(=O)[C@H]([C@@H](C)O)NC(=O)[C@@H]2CCCN2C1=O [DP-17] (AL[NMeL]F[NMeF]IPTLD-Piperidide; lactam N-10)			38	94	
CC(C)C[C@@H]1NC(=O)[C@H](CC(C)C)N(C)C(=O)[C@H](C)NC(=O)[C@H](C(C)C)N(C)C(=O)[C@H](Cc2ccccc2)NC(=O)CN(C)C(=O)[C@H]([C@@H](C)O)NC(=O)[C@H](C)N(C)C(=O)[C@H](CC(C)C)N(C)C(=O)[C@@H](C)NC(=O)C[C@@H](C(=O)N(C)[C@@H](Cc2ccccc2)C(=O)N[C@@H](C)C(=O)N2CCCCC2)NC1=O [DP-179] ([dA][NMeL][NMeA]T[Sar]F[NMeV]A[NMeL]LD[NMeF]A-Piperidide; lactam N-11)	17	13			
CC[C@H](C)[C@H]1C(=O)NCC(=O)N[C@H](C(=O)N2CCCCC2)CC(=O)N(C)[C@H](C)C(=O)N[C@@H](Cc2ccccc2)C(=O)N(C)[C@@H](CC(C)C)C(=O)N[C@@H](COC(C)(C)C)C(=O)N[C@@H](Cc2ccccc2)C(=O)N2CCC[C@H]2C(=O)N[C@@H]([C@@H](C)O)C(=O)N[C@@H](CC(C)C)C(=O)N(C)[C@@H](C)C(=O)N1C [DP-62] ([dNMeA]F[NMeL]S(tBu)FPTL[NMeA][NMeI]GD-Piperidide; lactam N-12)			33	22	
CC(C)C[C@@H]1NC(=O)[C@H](CCC(=O)O)NC(=O)[C@H](Cc2ccccc2)N(C)C(=O)[C@H](CC(C)C)NC(=O)[C@H](CC(C)C)N(C)C(=O)[C@H](Cc2ccccc2)NC(=O)[C@H](CC(C)C)N(C)C(=O)[C@H](CC(C)C)N(C)C(=O)[C@H](Cc2ccccc2)NC(=O)CN(C)C(=O)C[C@@H](C(=O)N(C)[C@@H](Cc2ccccc2)C(=O)N[C@@H](C)C(=O)N2CCCCC2)NC1=O [DP-596] ([Sar]F[NMeL][NMeL]F[NMeL]L[NMeF]ELD[NMeF]A-Piperidide; lactam N-11)			3.2		
CC[C@H](C)[C@H]1C(=O)N[C@H](C(=O)N2CCCCC2)CC(=O)N[C@@H](C)C(=O)N(C)[C@@H](C)C(=O)N(C)[C@@H](Cc2ccccc2)C(=O)N(C)[C@@H](CC(C)C)C(=O)N[C@@H]([C@@H](C)O)C(=O)N(C)CC(=O)N(C)[C@@H](CC(C)C)C(=O)N[C@@H](COC(C)(C)C)C(=O)N1C [DP-36] (A[NMeA][NMeF][NMeL]T[Sar][NMeL]S(tBu)[NMeI]D-Piperidide; lactam N-10)			27		
CC[C@H](C)[C@@H]1NC(=O)[C@H](CC(C)C)N(C)C(=O)CN(C)C(=O)[C@H]([C@@H](C)O)NC(=O)[C@H](C)N(C)C(=O)C[C@@H](C(=O)N(C)[C@@H](CC(C)C)C(=O)N[C@@H](C)C(=O)N2CCCCC2)NC(=O)[C@H](CC(C)C)N(C)C(=O)[C@H](Cc2ccccc2)N(C)C(=O)[C@H](CC(C)C)N(C)C1=O [DP-663] ([NMeA]T[Sar][NMeL]I[NMeL][NMeF][NMeL]D[NMeL]A-Piperidide; lactam N-9)	43				
